Reference: paper PMC3269340, “Pharmacokinetics of memantine in rats and mice” (PLoS Currents, 2012)

Key:
[1] = target: T1, OCT2 (Homo sapiens, UniProt O15244); assay: Indirect uptake transporter assay, OCT2; type: in vitro ADME
T1 construct: expressed in transfected cells; host or cells: CHO cells
T1 sequence (O15244 1-555): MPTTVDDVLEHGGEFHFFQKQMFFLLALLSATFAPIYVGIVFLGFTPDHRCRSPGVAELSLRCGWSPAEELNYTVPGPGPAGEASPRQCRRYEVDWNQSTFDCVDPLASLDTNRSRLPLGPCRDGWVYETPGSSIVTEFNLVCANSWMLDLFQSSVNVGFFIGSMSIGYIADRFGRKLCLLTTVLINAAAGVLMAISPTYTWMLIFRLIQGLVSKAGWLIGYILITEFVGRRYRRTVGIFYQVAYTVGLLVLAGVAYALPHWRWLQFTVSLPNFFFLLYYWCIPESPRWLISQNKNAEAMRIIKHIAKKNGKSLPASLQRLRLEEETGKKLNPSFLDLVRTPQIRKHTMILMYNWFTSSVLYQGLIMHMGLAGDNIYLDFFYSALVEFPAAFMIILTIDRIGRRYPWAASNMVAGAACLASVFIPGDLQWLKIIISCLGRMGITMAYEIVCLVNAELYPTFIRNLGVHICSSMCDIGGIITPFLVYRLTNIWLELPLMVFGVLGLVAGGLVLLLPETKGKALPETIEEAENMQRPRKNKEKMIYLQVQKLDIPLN
Excerpt: To determine whether memantine is an inhibitor of the human OATP2B1 (OATP-B), OCT1, OCT2, OAT3, PEPT1, PEPT2 uptake transporters. The standard uptake transporter assay is an indirect, inhibitory-type screening assay, performed with cold test article, which in this case was memantine. It provides information on any interaction (substrate or inhibitor) between selected uptake transporters and memantine that would affect the transport of the reporter compound. […] A radiolabeled reporter substrate is transported into the cells transfected with the selected human uptake transporter, and the inhibitory effect of memantine on the transport of this reporter substrate is measured. Values are presented on a relative scale; 100% defined as transport in the presence of the solvent and without memantine (no inhibition), and 0% defined as transport detected without transporter activity. IC50 is defined as the concentration required to inhibit the transport of the reporter substrate by 50%. […]
After the experiment cells were rinsed with 2 x 100µl of Krebs-Henseleit buffer and lysed with 50 µl of 0.1M NaOH. ^3H-estrone-3-sulfate, ^14C-TEA, ^14C-metformin and ^3H-Gly-Sar transport was determined by total radioactivity by transferring an aliquot (35µl) from each well to a vial containing liquid scintillant for analysis.

[2] = target: T2, human PEPT2 (Homo sapiens, UniProt Q16348); assay: Direct uptake transporter assay, PEPT2; type: in vitro ADME; conditions: for Accumulation in transporter transfected cells: PEPT2-transfected cells; for Accumulation in parental cells: parental CHO cells (PEPT2 line)
T2 construct: expressed in transfected cells; host or cells: CHO cells
T2 sequence (Q16348 1-729): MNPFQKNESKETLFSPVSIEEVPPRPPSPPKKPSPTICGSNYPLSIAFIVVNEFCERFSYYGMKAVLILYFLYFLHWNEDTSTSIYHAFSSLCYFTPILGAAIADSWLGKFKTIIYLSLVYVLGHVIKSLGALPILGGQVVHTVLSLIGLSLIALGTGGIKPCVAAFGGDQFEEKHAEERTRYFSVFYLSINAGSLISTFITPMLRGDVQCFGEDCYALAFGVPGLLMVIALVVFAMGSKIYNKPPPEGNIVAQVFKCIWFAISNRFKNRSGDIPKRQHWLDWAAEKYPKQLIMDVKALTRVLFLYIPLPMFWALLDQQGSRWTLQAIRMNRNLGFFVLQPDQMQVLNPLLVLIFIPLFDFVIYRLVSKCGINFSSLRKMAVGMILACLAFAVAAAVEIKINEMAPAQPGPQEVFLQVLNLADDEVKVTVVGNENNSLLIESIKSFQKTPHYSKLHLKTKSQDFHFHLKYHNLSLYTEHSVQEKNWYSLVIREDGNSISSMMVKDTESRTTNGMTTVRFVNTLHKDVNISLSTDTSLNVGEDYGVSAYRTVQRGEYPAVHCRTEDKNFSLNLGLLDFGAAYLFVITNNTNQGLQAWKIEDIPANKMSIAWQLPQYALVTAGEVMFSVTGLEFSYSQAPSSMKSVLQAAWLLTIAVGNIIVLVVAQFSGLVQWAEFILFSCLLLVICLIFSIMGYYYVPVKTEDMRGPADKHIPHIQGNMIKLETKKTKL
Description: To determine whether memantine is a substrate of the human OATP2B1 (OATP-B), OCT1, OCT2, OAT3, PEPT1, PEPT2 uptake transporters.
The potential for memantine to be a substrate of an uptake transporter was determined directly by comparing the uptake of memantine into cells expressing the selected uptake transporter with its uptake into control cells. Memantine was added to transporter-expressing and control cells at two concentrations (PEPT1 and PEPT2 100 and 300 µM, OCT1 and OCT2 50 and 100 µM, OATP2B1 100 and 300 µM), and incubated with cells for 2 and 20 min at 37±1°C (75 µL final incubation volume). The final concentrations of memantine were selected to be the IC50 of reporter substrate transport inhibition established in the indirect transporter assay and one order of magnitude lower. Incubations were carried out as described in the indirect uptake transporter assays. The concentration of memantine was determined by LC-MS/MS.

CC12CC3CC(C)(C1)CC(N)(C3)C2 [memantine]
IC50 ([1]; OCT2-mediated metformin uptake): 8.9 µM
IC50 ([1]; OCT2, probe in Table 5: Gly-Sar (1.8 μM), methods and text: metformin): 8.86 µM
Highest Fold Activation ([2]; PEPT2, 100µM, 20 min): 0.97 (100µM, 20 min)
Accumulation in transporter transfected cells ([2]; 2 min, 100 µM): 937 pmol/mg
Accumulation in transporter transfected cells ([2]; 2 min, 300 µM): 1871 pmol/mg
Accumulation in transporter transfected cells ([2]; 20 min, 100 µM): 897 pmol/mg
Accumulation in transporter transfected cells ([2]; 20 min, 300 µM): 1759 pmol/mg
substrate of PEPT2 uptake transporter ([2]; no preferential accumulation in transfected over parental cells): not a substrate
Accumulation in parental cells ([2]; 2 min, 100 µM): 965 pmol/mg
Accumulation in parental cells ([2]; 2 min, 300 µM): 2011 pmol/mg
Accumulation in parental cells ([2]; 20 min, 100 µM): 1219 pmol/mg
Accumulation in parental cells ([2]; 20 min, 300 µM): 2056 pmol/mg
